# According to publication PMC3386472 (Journal of Medicinal Chemistry, 2012):
# Entries after “also recorded” stand apart in the source; their conditions may differ.
# Assays:
# reserpine-treated rats = assay: Reversal of reserpine-induced hypolocomotion in rats; conditions: 5 µmol/kg, sc; for P compared to reserpine control (Dunnett's analysis post one-way ANOVA): horizontal locomotor activity; for Reversal of reserpine-induced hypolocomotion (horizontal activity): reserpine 5 mg/kg sc 18 h before, monitored 6 h
# human D3 receptor = human D3 receptor (Homo sapiens, UniProt P35462); assay: Stimulation of [35S]GTPγS binding, cloned human D3 receptor in CHO cells
# Chain of human D3 receptor (P35462 whole entry): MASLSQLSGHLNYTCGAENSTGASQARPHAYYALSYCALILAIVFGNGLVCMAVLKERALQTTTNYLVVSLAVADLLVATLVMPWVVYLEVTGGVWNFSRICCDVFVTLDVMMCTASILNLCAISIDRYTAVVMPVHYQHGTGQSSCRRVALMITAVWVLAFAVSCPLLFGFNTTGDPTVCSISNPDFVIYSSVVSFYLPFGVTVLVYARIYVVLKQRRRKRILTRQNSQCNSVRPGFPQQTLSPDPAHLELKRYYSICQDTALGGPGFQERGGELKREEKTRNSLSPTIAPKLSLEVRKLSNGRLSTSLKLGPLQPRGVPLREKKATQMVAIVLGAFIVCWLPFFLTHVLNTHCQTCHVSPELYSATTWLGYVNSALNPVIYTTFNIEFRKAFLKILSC
# human D2 receptor = human D2 receptor (Homo sapiens, UniProt P14416); assay: Stimulation of [35S]GTPγS binding, cloned human D2 receptor in CHO cells; conditions: [35S]GTPγS functional assay, % Emax vs DA
# Chain of human D2 receptor (P14416 whole entry): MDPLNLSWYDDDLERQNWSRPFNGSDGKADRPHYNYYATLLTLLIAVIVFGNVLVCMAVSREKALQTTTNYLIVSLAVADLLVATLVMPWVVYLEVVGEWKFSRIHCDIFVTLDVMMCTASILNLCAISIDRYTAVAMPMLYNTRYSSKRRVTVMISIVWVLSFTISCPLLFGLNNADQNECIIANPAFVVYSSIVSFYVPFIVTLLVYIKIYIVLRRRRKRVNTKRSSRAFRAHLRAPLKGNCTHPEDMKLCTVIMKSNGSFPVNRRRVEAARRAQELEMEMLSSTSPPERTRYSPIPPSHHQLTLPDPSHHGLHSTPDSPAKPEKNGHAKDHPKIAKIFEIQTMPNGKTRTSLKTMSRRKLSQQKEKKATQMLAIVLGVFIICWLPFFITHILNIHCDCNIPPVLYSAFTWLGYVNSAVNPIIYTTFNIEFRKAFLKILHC
# [1] = test system: MPTP- and lactacystin-lesioned animal models; conditions: cited from earlier work
structure (smiles),measurement,setting,value
CCCN(CCC)CCc1cccc2c1CC(=O)N2.Cl [ropinirole],P compared to reserpine control (Dunnett's analysis post one-way ANOVA),reserpine-treated rats,< 0.05
same,Reversal of reserpine-induced hypolocomotion (horizontal activity),reserpine-treated rats,significant locomotor activation
"CCCN(CCN1CCN(C(=O)c2c[nH]c3ccccc23)CC1)[C@H]1CCc2nc(N)sc2C1 [Compound (−)-45, (S)-(4-{2-[(2-Amino-4,5,6,7-tetrahydrobenzothiazol-6-yl)propylamino]ethyl}piperazin-1-yl)-(1H-indol-3-yl)methanone]",Agonist activity at D3 receptor (in words),"human D3 receptor; [35S]GTPγS functional assay, % Emax vs DA",full agonist activity
same,Agonist activity at D2 receptor (in words),human D2 receptor,full agonist activity
CCCN(CCN1CCN(c2ccc(-c3ccccc3)cc2)CC1)[C@H]1CCc2nc(N)sc2C1 [Compound D-264],Neuroprotection in PD animal models,[1]; MPTP and lactacystin models,neuroprotective
same,Behavioral syndromes in PD mouse models,[1]; acute MPTP and progressive lactacystin mouse models,significantly improved behavioral syndromes
"CCCN(CCN1CCN(c2ccc3[nH]ccc3c2)CC1)[C@H]1CCc2nc(N)sc2C1 [Compound (−)-19, (S)-N^6-{2-[4-(1H-Indol-5-yl)piperazin-1-yl]ethyl}-N^6-propyl-4,5,6,7-tetrahydro benzothiazole-2,6-diamine]",P compared to reserpine control (Dunnett's analysis post one-way ANOVA),reserpine-treated rats,< 0.01
same,Reversal of reserpine-induced hypolocomotion (horizontal activity),reserpine-treated rats,"significantly reversing akinesia; also recorded: significant, long-lasting reversal of hypolocomotion"
CCCN(CCN1CCN(c2nccc3ccccc23)CC1)[C@H]1CCc2nc(N)sc2C1 [Compound D-301],Emax,"human D3 receptor; CHO, read-out: hCHO-D3 % Emax",102 ± 2%
